Biological target: Autotaxin (Homo sapiens, UniProt Q13822)
Experiment: Biochemical Assay: Compound IC50 values are determined in a fluorescent hENPP2 (UniProtKB/SwissProt Sequence ref Q13822) biochemical assay using the fluorogenic autotaxin substrate FS-3 as substrate. FS-3 is a doubly labeled analog of LPC wherein the fluorophore is quenched through intramolecular energy transfer. Without hENPP2, the emission of the probe is quenched. If the substrate is hydrolyzed by hENPP2, the emission of the probe is not quenched anymore resulting in a fluorescence increase. Inhibition of hENPP2 by compounds will result in a decrease of the signal. 10 uL of a dilution series of compound, starting from 20 uM highest concentration, dilution, is added to the wells. hENPP2 is used at a final concentration of 0.4 ug/mL or 0.64 ug/mL (it will be appreciated by the skilled person that the potency read out is independent of the enzyme concentration). The enzyme is diluted in 50 mM Tris-HCl pH 8.0, 250 mM NaCl, 5 mM KCl, 1 mM MgCl2, 1 mM CaCl2, 0.1% fatty acid free BSA in a total volume of 20 uL. Enzyme mixture is added to compounds and the resulting mixture is incubated for 30 min at room temperature under shaking. The reaction is started by the addition of 20 uL of 0.75 uM FS-3 diluted in the same buffer as described above and the mixture is incubated at 30° C. for 30 min. Fluorescence is read on the Envision (Excitation 485 nm, emission 520 nm).

Question: How did the IC50 turn out when `CCc1nc2ccc(N3CCC(NC(=O)C4CCOCC4)CC3)nn2c1N(C)c1nc(-c2ccc(F)cc2)cs1` was run?
Answer: < 1000 nM
